What was measured:
[1] = system: L.casei; assay: Inhibition of bacterial growth (24 h, optical density); format: cell-based, Lactobacillus casei; details: for IC50: 50% inhibition in growth, 24 hours, means of triplicate experiments, read-out: ID/50 (the source's name); for ID/50: recalculated as ppm F, 1440 min
[2] = system: S.mutans OMZ-176; assay: as above; format: cell-based, Streptococcus mutans; details: for IC50: 50% inhibition in growth, 24 hours, means of triplicate experiments, read-out: ID/50 (the source's name); for ID/50: recalculated as ppm F, 1440 min
[3] = system: S.sanguis 10556; assay: as above; format: cell-based, Streptococcus sanguis; details: for IC50: 50% inhibition in growth, 24 hours, means of triplicate experiments, read-out: ID/50 (the source's name); for ID/50: recalculated as ppm F, 1440 min
[4] = system: S.mutans 6715; assay: as above; format: cell-based, Streptococcus mutans; details: recalculated as ppm F, 1440 min
[5] = Dissolution of hydroxyapatite discs following fluoride treatment (phosphate release)
[6] = system: Osborne-Mendel rats; assay: Rat caries study; format: in vivo
[7] = system: S.sanguis 10557; assay: Inhibition of bacterial growth (24 h, optical density); format: cell-based, Streptococcus sanguis; details: for IC50: 50% inhibition in growth, 24 hours, means of triplicate experiments, read-out: ID/50 (the source's name); for ID/50: recalculated as ppm F, 1440 min
[8] = system: S.salivarius H-257; assay: as above; format: cell-based, Streptococcus salivarius; details: for IC50: 50% inhibition in growth, 24 hours, means of triplicate experiments, read-out: ID/50 (the source's name); for ID/50: recalculated as ppm F, 1440 min
[9] = system: S.salivarius SS4; assay: as above; format: cell-based, Streptococcus salivarius; details: for IC50: 50% inhibition in growth, 24 hours, means of triplicate experiments, read-out: ID/50 (the source's name); for ID/50: recalculated as ppm F, 1440 min
[10] = Stability of solution on standing (haze / turbidity)
[11] = normal temperature and pressure
[12] = system: Artificial Plaque; assay: In vitro antiplaque study on saliva-coated aluminium plummets; format: cell-based; details: means ± 95% confidence limits, five replicas
[13] = Availability of F ion by fluoride-selective electrode; format: physicochemical; details: Orion fluoride electrode
[14] = complexing between the Zn and NH4; cited from earlier work
[15] = pH of aqueous solution; format: physicochemical
From the text: An aqueous solution of ZnNH4F3 has a pH of 5.8. The preferred pH of oral compositions containing ZnNH4F3 is from 4.5 to 8.0. A 1000 ppm F^- solution was stable.

[16] = 1000 ppm F- solution, pH 4.0, vs disc treated with buffer alone, means of triplicate, 30 min
[17] = 1000 ppm F- solution, pH 5.0, vs disc treated with buffer alone, means of triplicate, 30 min
[18] = 1000 ppm F- solution, pH 6.0, vs disc treated with buffer alone, means of triplicate, 30 min
[19] = 1000 ppm F- solution, pH 7.0, vs disc treated with buffer alone, means of triplicate, 30 min

| Molecule | IC50 [1] [mM] | ID/50 [1] [ppm F] | IC50 [2] [mM] | ID/50 [2] [ppm F] | IC50 [3] [mM] | ID/50 [3] [ppm F] | ID/50 [4] [ppm F] | % Reduction in Dissolution [5, 16] [%] | % Reduction in Dissolution [5, 17] [%] | % Reduction in Dissolution [5, 18] [%] | % Reduction in Dissolution [5, 19] [%] | IC50 [7] [mM] | ID/50 [7] [ppm F] | IC50 [8] [mM] | ID/50 [8] [ppm F] | IC50 [9] [mM] | ID/50 [9] [ppm F] | Percentage Inhibition of Growth of Artificial Plaque ([12]; Zinc Conc. 6.0 mM/L) | Percentage Inhibition of Growth of Artificial Plaque ([12]; Zinc Conc. 15.0 mM/L) | Percentage Inhibition of Growth of Artificial Plaque ([12]; Zinc Conc. 30.0 mM/L) | also measured |
| --- | --- | --- | --- | --- | --- | --- | --- | --- | --- | --- | --- | --- | --- | --- | --- | --- | --- | --- | --- | --- | --- |
| [F-].[Na+] [NaF] | > 12 | 352 | 16.3 | 309 | 1.18 | 22 | 138 | 44 | 36 | 31 | 31 | 1.82 | 35 | 3.77 | 72 | 13.4 | 255 |  |  |  | Caries/ Rat ([6]; 1000 ppm F-, topical to molar teeth, 21 days, cariogenic diet, only severe lesions (B & C) scored, water control 5.25): 3.69; % Reduction ([6]; reduction in caries based on the water control, 1000 ppm F-, topical, 21 days): 29.7% |
| [F][Sn][F] [SnF2] |  |  |  |  |  |  |  | 57 | 54 | 45 | 43 |  |  |  |  |  |  |  |  |  | stability of solution ([10]; after 24 hours at room temperature): developed turbidity |
| [F][Zn][F] [ZnF2] |  |  |  |  |  |  |  |  |  |  |  |  |  |  |  |  |  |  |  |  | solubility [11]: 1.5% |
| Cl.N.[Cl-].[Cl-].[Zn+2] [ZnNH4Cl3] | 10 |  |  |  | 0.46 |  |  |  |  |  |  |  |  |  |  | 6.5 |  |  |  |  |  |
| O=S(=O)([O-])[O-].[Zn+2] [ZnSO4] | 10.4 |  | 7.5 |  | 0.36 |  |  |  |  |  |  | 0.4 |  | 0.75 |  | 6 |  | 47 ± 14 | 51 ± 14 | 64 ± 14 |  |
| zinc ammonium fluoride [ZnNH4F3] | 4.7 | 268 | 3.05 | 174 | 0.21 | 12 | 92 |  |  |  |  | 0.25 | 14 | 0.34 | 19 | 1.88 | 104 | 45 ± 14 | 48 ± 14 | 60 ± 14 | stability of solution ([10]; 1000 ppm F- solution, not hazy on standing after several weeks): stable; % Reduction in Dissolution ([5]; hydroxyapatite discs, pH 4, 30 min): 52%; % Reduction in Dissolution ([5]; hydroxyapatite discs, pH 5, 30 min): 49%; % Reduction in Dissolution ([5]; hydroxyapatite discs, pH 6, 30 min): 43%; % Reduction in Dissolution ([5]; hydroxyapatite discs, pH 7, 30 min): 40%; % Reduction ([6]; rat, in vivo): 30.9%; Caries/ Rat ([6]; rat, in vivo): 3.63; availability of F ion ([13]; solution at 1000 ppm F level): 100%; availability of F ion ([13]; solution at 2500 ppm F level): 100%; log K [14]: 2.18-2.59; pH of aqueous solution [15]: 5.8 |

From patent EP0121012A1, “Oral compositions” (UNILEVER PLC, priority 1983, dated 1984)
